# Measured values reported in patent US20190248830A1, “PROLIPOSOMAL TESTOSTERONE UNDECANOATE FORMULATIONS” (WESTERN UNIVERSITY OF HEALTH SCIENCES, priority 2016, published 2019).
# Read-outs that look alike come from different tables or passages of the source.
# How the values were obtained:
# [1] = Plasma testosterone concentrations and PK after oral TSX-010, TSX-011, TSX-012 or unformulated TU in female beagle dogs; type: in vivo; settings: TU 7.5 mg/kg
# Description: Plasma testosterone concentrations after administration of TSX-010 (TU:Lipid, 1:1), TSX-011 (TU:Lipid, 1:2), and TSX-012 (TU:Lipid, 1:4). Unformulated TU, TSX-010, TSX-011, and TSX-012 formulations were orally administered under either fasted or fed conditions. The fasted condition means animals were fasted overnight, dosing was performed the subsequent morning, and food was served two hours post-dosing. Animals were allowed access to food for another two hours, and monitored if they ate the food. The fed condition means animals were fasted overnight, dosing was performed the subsequent morning, and food was served 15 min. post-dosing. Animals were allowed access to food for another two hours, and monitored if they ate the food. For unformulated TU, blood samples were taken by venipuncture of the jugular vein at 0, 0.5, 1, 2, 3, 4, 6, 8, 12, and 24 hours in both fed and fasted conditions. For TU formulations like TSX-010, TSX-011, TSX-012, blood samples were taken by venipuncture of the jugular vein at 0, 4, 6, 8, 10, 12, 14, 16, 18 and 24 hours in fasted conditions and at 0, 1, 2, 4, 6, 8, 10, 12, 16 and 24 hours in fed conditions in femalebeagle dogs. The administered dosages of TU were either 1.875, 3.75, or 7.5 mg/kg (TU/body weight). Plasma testosterone concentration data, was obtained at day 1 for formulations TSX-010, TSX-011, and TSX-012, and days 1 and 7, for unformulated TU.
# (§1) In vivo pK data for TSX-010 (TU:Lipid, 1:1), TSX-011 (TU:Lipid, 1:2), and TSX-012 (TU:Lipid, 1:4) in female Beagle dogs. Unformulated TU, TSX-010, TSX-011, and TSX-012 formulations. In addition to tracking plasma T levels, blood samples taken by jugular vein puncture at 0, 0.5, 1, 2, 3, 4, 6, 8, 12, 24 hours, and the following pharmacokinetic (PK) parameters were analyzed for each formulation and unformulated testosterone and testosterone undecanoate. Table 18 contains PK data for unformulated testosterone and testosterone undecanoate at days 1 and 7, under fasted and fed conditions. Tables 19 and 20 contain PK data for the TSX-010, TSX-011, and TSX-012 formulations under fasted (Table 19) and fed (Table 20) conditions.
# [2] = Oral PK (plasma T) of TSX-002, TSX-007, TSX-009, unformulated T and TU in female beagle dogs, fasted or fed; type: in vivo; settings: for Av. AUC (plasma T) / Av. Cmax (plasma T) / Av. Tmax / AUC / Cmax / Tmax: oral 7.5 mg/kg; for AUC / Cmax / Tmax: female, beagle, dog, plasma, po, 7.5 mg/kg; for AUC: read-out: Av. AUC (plasma T); for Cmax: read-out: Av. Cmax (plasma T); for Tmax: read-out: Av. Tmax
# Description: In vivo pK data TSX-002 (native T:Lipid), TSX-007 (native T:Lipid:TPGS (20% w/w of T)), and TSX-009 (TU:Lipid:TPGS (20% w/w of T)). TSX-002, TSX-007, and TSX-009 formulations were orally administered to female beagle dogs under fasted or fed conditions. Fasted condition means animals were fasted overnight, dosing was performed the subsequent morning, and food was served two hours post-dosing. Animals were allowed access to food for another two hours, and monitored if they ate the food. Fed condition means animals were fasted overnight, dosing was performed the subsequent morning, and food was served 15 min. post-dosing. Animals were allowed access to food for another two hours, and monitored if they ate the food. Blood samples were taken, at 0, 0.5, 1, 2, 3, 4, 6, 8, 12 and 24 hours. The administered dosage of TU was 7.5 mg/kg (TU/body weight). Plasma samples were analyzed on Day 1 and Day 7. Pharmacokinetic data for treatment days 1 and 7, under fasting and fed conditions are reported for unformulated T in Table 2; unformulated TU in Table 3; TSX-002 (T:Lipid) in Table 4; TSX-007 (native T:Lipid:TPGS (20% w/w of T)) in Table 5; and TSX-009 (TU:Lipid:TPGS (20% w/w of T)) in Table 6.
# as §1
smiles,measurement,setting,value
"CCCCCCCCCCC(=O)O[C@H]1CC[C@H]2[C@@H]3CCC4=CC(=O)CC[C@]4(C)[C@H]3CC[C@]12C [Unformulated TU, testosterone undecanoate]","Animals with plasma T > 0.5 ng/mL, percent","[1]; fasted, day 1",(33.3%)
same,Animals with plasma T > 0.5 ng/mL (responders/treated),"[1]; fasted, day 1, within 24 h",2/6
same,"Animals with plasma T > 0.5 ng/mL, percent","[1]; fasted, day 7",(50%)
same,Animals with plasma T > 0.5 ng/mL (responders/treated),"[1]; fasted, day 7, within 24 h",3/6
same,"Animals with plasma T > 0.5 ng/mL, percent","[1]; fed, day 1",(100%)
same,Animals with plasma T > 0.5 ng/mL (responders/treated),"[1]; fed, day 1, within 24 h",6/6
same,"Animals with plasma T > 0.5 ng/mL, percent","[1]; fed, day 7",(100%)
same,Animals with plasma T > 0.5 ng/mL (responders/treated),"[1]; fed, day 7, within 24 h",5/6
same,Plasma profiles on Day 7,"[2]; Day 7, compared to responders to proliposomal TU formulations",plasma profiles dropped significantly
same,Increase in AUC and Cmax in the presence of food,[2]; fed compared to fasted state,two-fold increase in AUC and Cmax
same,Av. AUC (plasma T),"[2]; day 1, fasted",16.63 ± 27.15 ng·h/mL
same,Av. Cmax (plasma T),"[2]; day 1, fasted",2.34 ± 3.94 ng/mL
same,Av. Tmax,"[2]; day 1, fasted",6.50 ± 4.43 h
same,Av. AUC (plasma T),"[2]; day 1, fed",108.41 ± 42.73 ng·h/mL
same,Av. Cmax (plasma T),"[2]; day 1, fed",33.83 ± 5.06 ng/mL
same,Av. Tmax,"[2]; day 1, fed",4.0 ± 1.55 h
same,Av. AUC (plasma T),"[2]; day 7, fasted",30.88 ± 35.98 ng·h/mL
same,Av. Cmax (plasma T),"[2]; day 7, fasted",4.38 ± 5.12 ng/mL
same,Av. Tmax,"[2]; day 7, fasted",8.0 ± 5.66 h
same,Av. AUC (plasma T),"[2]; day 7, fed",20.50 ± 16.59 ng·h/mL
same,Av. Cmax (plasma T),"[2]; day 7, fed",5.37 ± 3.78 ng/mL
same,Av. Tmax,"[2]; day 7, fed",4.17 ± 3.25 h
"C[C@]12CC[C@H]3[C@@H](CCC4=CC(=O)CC[C@@]43C)[C@@H]1CC[C@@H]2O [Unformulated T, testosterone]",AUC,"[2]; day 1, fasted",28.7 ± 9.44 ng·h/mL
same,Cmax,"[2]; day 1, fasted",6.39 ± 2.47 ng/mL
same,Tmax,"[2]; day 1, fasted",2.17 ± 0.98 h
same,AUC,"[2]; day 1, fed",36.8 ± 19.4 ng·h/mL
same,Cmax,"[2]; day 1, fed",9.85 ± 5.8 ng/mL
same,Tmax,"[2]; day 1, fed",3.67 ± 2.58 h
same,AUC,"[2]; day 7, fasted",11.2 ± 3.28 ng·h/mL
same,Cmax,"[2]; day 7, fasted",2.7 ± 0.78 ng/mL
same,Tmax,"[2]; day 7, fasted",2.5 ± 1.22 h
same,AUC,"[2]; day 7, fed",43 ± 43.9 ng·h/mL
same,Cmax,"[2]; day 7, fed",13 ± 13.6 ng/mL
same,Tmax,"[2]; day 7, fed",3.5 ± 4.42 h
